The values that follow come from patent US20240131029A1, “SELECTIVE ROCK2 INHIBITION FOR TREATMENT OF EDEMA AND ASSOCIATED CONDITIONS” (President and Fellows of Harvard College, priority 2021, published 2024).

“Also recorded” adds a separate entry of the source.

One assay concerns tail vein edema. Kind of assay: mouse tail edema following cautery injury. The class given is in vivo, mice. The conditions noted are these: following cautery injury (FIG. 4A). The procedure: Tail volume changes were quantified (FIG. 4B), and drainage to the iliac lymph nodes was assesses 1 hour after intradermal injection of Alexa647-conjugated albumin into tails of mice treated with KD025 or vehicle (FIG. 4C).

For assay [1], the system named is human dermal lymphatic endothelial cells (LECs), engineered lymphatic vessel. Put plainly: lymphatics-on-chip lymphatic drainage under cytokine challenge. Format: cell-based. The source says:
(§1) To overcome the issues outlined above, a microfluidic 3D culture model featuring an engineered lymphatic vessel that can drain interstitial fluid was developed. The device includes a polydimethylsiloxane (PDMS) housing and two parallel cylindrical channels within a 3D collagen hydrogel (FIG. 1A). Human dermal lymphatic endothelial cells (LECs) seeded in one channel generated an engineered lymphatic vessel (FIG. 1A) that expressed lymphatic endothelial markers with appropriate apical-basal orientation (FIG. 1A and FIG. 1B). Furthermore, stimulation with the lymphangiogenic vascular endothelial growth factor C (VEGFC) triggered lymphatic sprouting (FIG. 1C). To characterize the integrity of the lymphatic endothelium within the device, their junctional organization was examined by immunofluorescence.
To functionally assess this rudimentary lymphatic vessel required a measure of lymphatic drainage. To accomplish this, the second, cell-free channel was pressurized with a surrogate lymph fluid composed of fluorescently labeled lymph molecules, including fatty acids, phospholipids, albumin, and insoluble particles (data not shown). The interstitial fluid pressure triggered convective fluid transport into the engineered lymphatic vessel. Lymph fluid drained by the lymphatic vessel accumulated in the connected reservoirs and was collected for analysis. Human dermal blood microvascular endothelial cells-generated blood vessels or cell-free channels were used as controls. […] Time-lapse microscopy of drainage further confirmed that fluid entered the luminal space of lymphatic vessels faster than that of blood vessels (FIG. 1H and data not shown).
Inflammation is a primary driver of lymphedema (2, 9, 10), so the next set of experiments tested whether inflammatory cytokines could impair drainage in this system. […] To begin to characterize what signaling pathways might be involved in tightening the lymphatic junctions, inhibitors that might impact IL-2-induced junction assembly were identified (data not shown): PP2, a Src-family of protein tyrosine kinase inhibitor; Wortmannin, a PI3K inhibitor; Y27632, a ROCK inhibitor; GGTI298, a Rap1 inhibitor; NSC23766, a Rac1 inhibitor; Blebbistatin, a Myosin II inhibitor; and Cpd22, an integrin-linked kinase inhibitor.

The next assay has as its system LEC junctions. Kind of assay: junction staining of engineered lymphatic vessels (immunofluorescence). Format: cell-based, human. As to conditions: 20 μM, IL-2 challenge.
From the text: as §1
Inflammation is a primary driver of lymphedema (2, 9, 10), so the next set of experiments tested whether inflammatory cytokines could impair drainage in this system. […]

Assay [2] concerns lymphedema in mouse tails. Put plainly: mouse tail lymphedema model (surgical ligation of peripheral lymphatics). The class given is in vivo. Here is the method:
To investigate the potential efficacy of ROCK inhibition in lymphedema, Y27632 was tested in an established mouse model of lymphedema (13, 14). Lymphedema was induced by surgical ligation of peripheral lymphatics in mouse tails (FIG. 2G). […] Tail-injured mice were left without any treatment for one month.

Setting [3] is: clinically used ROCK inhibitors, FIG. 2C.

As to `CC(C)NC(=O)COc1cccc(-c2nc(Nc3ccc4[nH]ncc4c3)c3ccccc3n2)c1` [KD025, 2-[3-[4-(1H-indazol-5-ylamino)-2-quinazolinyl]phenoxy]-N-(1-methylethyl)-acetamide], the “visible tail vein edema swelling” value in the assay on tail vein edema is recorded as “reduced visible tail vein edema swelling”. For the same compound, the lymphatic drainage result in assay [1] (20 μM, IL-2 challenge (FIG. 3L)) is reported as “reversed; also recorded: sufficient to reduce lymphatic drainage”. In addition, in the assay with LEC junctions, the “tightening of the LEC junctions” value was “reversed tightening of the LEC junctions”.

Regarding `C[C@@H](N)[C@H]1CC[C@H](C(=O)Nc2ccncc2)CC1` [Compound Y27632], in assay [2] (1 h after intradermal Alexa647-conjugated albumin (FIG. 2H)), the “drainage to proximal lymph nodes compared to untreated control mice” value is given as “tenfold higher drainage”. Also, the “time to complete resolution of lymphedema following treatment” value in assay [2] (delayed treatment, one month after tail injury) is at most 2 weeks. Besides, the “reversal of existing chronic lymphedema” value in assay [2] (delayed treatment, one month after tail injury (FIG. 2I, 2J)) is reported as “completely resolved the lymphedema”. Besides, the “lymphedema (tail volume change), prevention” value in assay [2] (treatment after surgical ligation (FIG. 2G)) was “completely prevented lymphedema”. For the same compound, the lymphatic drainage result was “normalized” in assay [1] (GM-CSF and G-CSF treated conditions (FIG. 2A, 2B)); “completely normalized the impaired drainage” in assay [1] (IL-2 treated lymphatic vessels).

As for `O=S(=O)(c1cccc2cnccc12)N1CCCNCC1` [Fasudil], in assay [1] (setting [3]), the lymphatic drainage result is on record as “similarly improved lymphatic drainage”.

Take `C[C@H]1CNCCCN1S(=O)(=O)c1cccc2cncc(F)c12` [Ripasudil]: in assay [1] (setting [3]), the lymphatic drainage entry is reported as “similarly improved lymphatic drainage”.
